Patent US7524885B2, “Compounds that stimulate glucose utilization and methods of use” (The Governors of the University of Alberta, priority 2002, dated 2009)

The molecules below were run on isolated working rat heart (assay: Glucose oxidation in isolated perfused working rat heart ([U-14C]glucose, 14CO2 production)). Details: Table 2A; screening concentration 100 μM; isolated working rat heart; read-out: Glucose Oxidation (% above control).
Experimental: Rat hearts were cannulated for isolated working heart 60 minute aerobic perfusions as described in J Pharmacol Exp Ther. 1993; 264:135-144, the entire disclosure of which is incorporated herein by reference.
Male Sprague-Dawley rats (0.3-0.35 kg) were anesthetized with pentobarbital sodium (60 mg/kg IP) and hearts were quickly excised, the aorta was cannulated and a retrograde perfusion at 37° C. was initiated at a hydrostatic pressure of 60 mm Hg. Hearts were trimmed of excess tissue, and the pulmonary artery and the opening to the left atrium were then cannulated. After 15 min of Langendorff perfusion, hearts were switched to the working mode by clamping the aortic inflow line from the Langendorff reservoir and opening the left atrial inflow line. The perfusate was delivered from an oxygenator into the left atrium at a constant preload pressure of 11 mm Hg. Perfusate was ejected from spontaneously beating hearts into a compliance chamber (containing 1 ml of air) and into the aortic outflow line. The afterload was set at a hydrostatic pressure of 80 mm Hg. All working hearts were perfused with Krebs'-Henseleit solution containing calcium 2.5 mmol/L, glucose 5.5 mmol/L, 3% bovine serum albumin (fatty acid free, initial fractionation by heat shock, Sigma), and with 1.2 mmol/L palmitate. Palmitate was bound to the albumin as described in J Bio Chem. 1992; 267:3825-3831, the entire disclosure of which is incorporated herein by reference.
The perfusate was recirculated, and pH was adjusted to 7.4 by bubbling with a mixture containing 95% O2 and 5% CO2.
Spontaneously beating hearts were used in all perfusions. Heart rate and aortic pressure were measured with a Biopac Systems Inc. blood pressure transducer connected to the aortic outflow line. Cardiac output and aortic flow were measured with Transonic T206 ultrasonic flow probes in the preload and afterload lines, respectively. Coronary flow was calculated as the difference between cardiac output and aortic flow. Cardiac work was calculated as the product of systolic pressure and cardiac output.
Measurement of Glucose Oxidation: Glucose oxidation was measured simultaneously by perfusing hearts with [U-^14C] glucose according to the procedures discussed in Saddik M, et al., J Bio Chem. 1992; 267:3825-3831. The entire disclosure of this reference is incorporated herein by reference. The total myocardial ^14CO2 production was determined at 10-min intervals from the 60-min aerobic period. Glucose oxidation rates were determined by quantitative measurement of ^14CO2 production as described in Barbour RL, et al., Biochemistry. 1984; […]. The entire disclosure of this reference is incorporated herein by reference. ^14CO2 production for the control group were compared with the ^14CO2 production for the group treated with cyclopropanecarboxylic acid, 2-[2-(2-methoxy-ethoxy)-ethoxy]-ethyl ester. Results are shown on FIG. 1 and TABLE 2A.
The procedure of Example A for was followed except that cyclobutanecarboxylic acid, 2-[2-(2-methoxy-ethoxy)-ethoxy]-ethyl ester in 1 μM, 10 μM, 100 μM and 1000 μM amounts was added to the buffer in place of the cyclopropanecarboxylic acid, 2-[2-(2-methoxy-ethoxy)-ethoxy]-ethyl ester. The results are illustrated in FIG. 2 and TABLE 2A.
The procedure of Example A was followed except that cyclopropanecarboxylic acid, 2-isopropoxy-ethyl ester in 1 μM, 10 μM, 100 μM and 1000 μM amounts was added to the buffer in place of the cyclopropanecarboxylic acid, 2-[2-(2-methoxy-ethoxy)-ethoxy]-ethyl ester. The results are illustrated in FIG. 3 and TABLE 2A.
The procedure of Example A was followed except that various cyclobutanecarboxylic acid derivatives, cyclopropanecarboxylic acid derivatives and cyclobutanecarboxylic acid in the amounts of 100 μM or 1000 μM was added to the buffer in place of the cyclopropanecarboxylic acid, 2-[2-(2-methoxy-ethoxy)-ethoxy]-ethyl ester.

Row | Structure (SMILES) | activation at 100 µM [%]
1 | CC(C)OCCOC(=O)C1CCC1 [Compound 18MM071, Cyclobutanecarboxylic acid 2-isopropoxy-ethyl ester] | 97
2 | CCCCCCOCCOCCOC(=O)C1CC1 [Compound 11MM064, Cyclopropanecarboxylic acid 2-(2-hexyloxy-ethoxy)-ethyl ester] | 83
3 | CC(C)OCCOC(=O)C1CC1 [Compound 17MM070, Cyclopropanecarboxylic acid 2-isopropoxy-ethyl ester] | 208
4 | O=C(OCCOCCOC(=O)C1CCC1)C1CCC1 [Compound 20MM073, Cyclobutanecarboxylic acid, 2-(2-cyclobutanecarbonyloxy-ethoxy)-ethyl ester] | 243
5 | CCOCCOC(=O)C1CCC1 [Compound 16MM069, Cyclobutanecarboxylic acid 2-ethoxy-ethyl ester] | 162
6 | CCOCCOC(=O)C1CC1 [Compound 15MM068, Cyclopropanecarboxylic acid 2-ethoxy-ethyl ester] | 416
7 | O=C(OCCOCCOCCOC(=O)C1CC1)C1CC1 [Compound 21MM074, Cyclopropanecarboxylic acid, 2-[2-(2-cyclopropanecarbonyloxy-ethoxy)-ethoxy]-ethyl ester] | 228
8 | COCCOCCOC(=O)C1CCC1 [Compound 14MM067, Cyclobutanecarboxylic acid 2-(2-methoxy-ethoxy)-ethyl ester] | 50
9 | O=C(OCCOCCOCc1ccccc1)C1CC1 [Compound 4MM057, Cyclopropanecarboxylic acid 2-(2-benzyloxy-ethoxy)-ethyl ester] | 104
10 | O=C(OCCOCCOC(=O)C1CC1)C1CC1 [Compound 19MM072, Cyclopropanecarboxylic acid, 2-(2-cyclopropanecarbonyloxy-ethoxy)-ethyl ester] | 97
11 | O=C(OCCOCCOCc1ccccc1)C1CCC1 [Compound 6MM059, Cyclobutanecarboxylic acid 2-(2-benzyloxy-ethoxy)-ethyl ester] | 68
12 | COCCOCCOCCOC(=O)C1CCC1 [Compound 3MM056, Cyclobutanecarboxylic Acid, 2-[2-(2-methoxy-ethoxy)-ethoxy]-ethyl ester] | 54
13 | O=C(OCCOCCOCCOC(=O)C1CCC1)C1CCC1 [Compound 22MM075, Cyclobutanecarboxylic Acid, 2-[2-(2-cyclobutanecarbonyloxy-ethoxy)-ethoxy]-ethyl ester] | 184
14 | CN(C)CCOCCOC(=O)C1CC1 [Compound 9MM062, Cyclopropanecarboxylic acid 2-(2-dimethylamino-ethoxy)-ethyl ester] | 77
15 | CN(C)CCOCCOC(=O)C1CCC1 [Compound 10MM063, Cyclobutanecarboxylic acid 2-(2-dimethylamino-ethoxy)-ethyl ester] | 41
16 | COCCOCCOCCOC(=O)C1CC1 [Compound 1MM054, Cyclopropanecarboxylic acid 2-[2-(2-methoxy-ethoxy)-ethoxy]-ethyl ester] | 102
17 | O=C(OCCN(CCOC(=O)C1CC1)CCN(CCOC(=O)C1CC1)CCOC(=O)C1CC1)C1CC1 [Compound 23MM076, Cyclopropanecarboxylic acid 2-[{2-[bis(2-cyclopropanecarbonyloxy-ethyl)-amino]-ethyl}-(2-cyclopropanecarbonyloxy-ethyl)-amino] ethyl ester] | 274
18 | CC(C)OCCOC(=O)[C@@H]1C[C@H]1c1ccccc1 (racemic) [Compound 25MM078, trans-2-Phenyl-cyclopropanecarboxylic acid 2-isopropoxy-ethyl ester] | 200

Same assay, conditions: Table 2A; screening concentration 1000 μM; isolated working rat heart; read-out: Glucose Oxidation (% above control)

Row | Structure (SMILES) | activation at 1000 µM [%]
19 | O=C(O)CNC(=O)C1CCC1 [Compound 2MM055, (Cyclobutanecarbonyl-amino)-acetic acid] | 58

Same assay, conditions: Table 2B; screening concentration 100 μM; isolated working rat heart; read-out: Glucose Oxidation (% above control)

Row | Structure (SMILES) | activation at 100 µM [%]
20 | CCOCCOC(=O)C1(C)CC1(Cl)Cl (centres unmarked) [Compound 33MM086, 2,2-Dichloro-1-methyl-cyclopropanecarboxylic acid 2-ethoxy-ethyl ester] | 117
21 | CC(=O)NCCSC(=O)C1CC1 [Compound 38MM091, Cyclopropanecarbothioic acid S-(2-acetylamino-ethyl) ester] | 176
22 | O=C(SCc1ccco1)C1CC1 [Compound 42MM095, Cyclopropanecarbothioic acid S-furan-2-yl methyl ester] | 314
23 | CCOCCOC(=O)C1C(C)(C)C1(C)C [Compound 29MM082, 2,2,3,3-Tetramethyl-cyclopropanecarboxylic acid, 2-Ethoxy-ethyl ester] | 110
24 | COCCOCCOCCOC(=O)C1(c2ccccc2)CC1 [Compound 44MM097, 1-phenyl-cyclopropanecarboxylic acid 2[2-(2-methoxy-ethoxy)-ethoxy]-ethyl ester] | 125
25 | COCCOC(=O)C1CC1 [Compound 30MM083, Cyclopropanecarboxylic acid, 2-Methoxy-ethyl ester] | 197
26 | CCOCCOC(=O)C1(c2ccccc2)CC1 [Compound 27MM080, 1-Phenyl-cyclopropanecarboxylic acid 2-ethoxy-ethyl ester] | 148
27 | CCC1(COC(=O)C2CC2)COCOC1 [Compound 40MM093, Cyclopropanecarboxylic acid 5-ethyl-[1,3]-dioxan-5.ylmethyl ester] | 260
28 | CCOCCOC(=O)C1(c2ccc(OC)cc2)CC1 [Compound 43MM096, 1-(4-methoxy-phenyl)-cyclopropanecarboxylic acid 2-ethoxy-ethyl ester] | 93
29 | Cc1ncsc1CCOC(=O)C1CC1 [Compound 36MM089, Cyclopropanecarboxylic acid 2-(4-methyl-thiazol-5-yl)-ethyl ester] | 202
30 | O=C(OCC1COc2ccccc2O1)C1CC1 (centres unmarked) [Compound 41MM094, Cyclopropanecarboxylic acid 2,3-dihydro-benzo(1,4)dioxin-2-ylmethyl ester] | 389
31 | COC(=O)CSC(=O)C1CC1 [Compound 37MM090, Cyclopropanecarbonylsulfanyl-acetic acid methyl ester] | 251
32 | CCOCCOC(=O)C1(C(=O)OCCOCC)CC1 [Compound 31MM084, Cyclopropane-1,1-dicarboylic acid bis-(2-ethoxy-ethyl) ester] | 197
33 | CCOCCOC(=O)C1CC1C (stereo not drawn) [Compound 32MM085, Trans-2-methyl-cyclopropanecarboylic acid 2-ethoxy-ethyl ester] | 150
34 | O=C(OCCN1CCOCC1)C1CC1 [Compound 39MM092, Cyclopropanecarboxylic acid 2-morpholin-4-yl-ethyl ester] | 233
35 | O=C(OC[C@H]1O[C@H](OC(=O)C2CC2)[C@H](OC(=O)C2CC2)[C@@H](OC(=O)C2CC2)[C@@H]1OC(=O)C1CC1)C1CC1 [Compound 35MM088, 1,2,3,4,6-penta-O-(cyclopropanecarbonyl)-D-glucopyranose] | 205
36 | CCOCCOC(=O)[C@]1(/C=C/c2ccccc2)C[C@H]1c1ccccc1 [Compound 34MM087, (1S,2S)-2-phenyl-1-styrl-cyclopropanecarboxylic acid 2 ethoxy-ethyl ester] | 112

Same assay, conditions: intact heart

Row | Structure (SMILES) | stimulation of glucose oxidation in the heart (in words)
37 | O=C(O)C1CC1 [MM001, Cyclopropanecarboxylic acid] | stimulator of glucose oxidation
38 | O=C(O)C1CCC1 [MM013, Cyclobutanecarboxylic acid] | stimulate glucose oxidation
